Reference: patent US11491117B2, “Compounds for the prevention and treatment of glucose intolerance related conditions and obesity” (SORBONNE UNIVERSITÉ, priority 2017, dated 2022)

System: C57BL/6J mice fed control chow diet (CHD) or high fat diet (HFD)
Assay: Chronic subcutaneous infusion in mice fed control chow or high fat diet: body growth, glucose homeostasis (IPGTT), insulin secretion, organ weight, liver triglycerides
Type: in vivo, mouse
Method: Six weeks-old C57BL/6J male mice (Janvier Labs, Courtaboeuf, France) were received and acclimated in specific pathogen free (SPF) maintenance condition. Mice had free access to a standard chow diet (R04-40, Safe, Augy, France) and were kept on 12 h light/dark cycle. After one week, a group of 12 mice was fed control carbohydrate diet (CHD) (D 12450Ki, Research diets, NJ) and a group of 12 mice was fed high fat (60% fat and sucrose) diet (HFD) (D12492i, Research diets, NJ).
After three weeks of metabolite treatment (i.e. four weeks of HFD feeding) an intra-peritoneal glucose tolerance test (IPGTT) (2 g/kg) was performed in conscious mice following an overnight fast. Blood was collected from the tail vein before glucose injection and 15, 30, 60 and 120 minutes afterwards. Additional blood samples were collected during the IPGTT in GK rats 15, 90, 180 and 240 minutes after glucose injection. Blood glucose levels were determined using an Accu-Check® Performa (Roche Diagnostics, Meylan, France). Additional blood samples were collected at base line and 30 minutes after glucose injection in Microvette® CB 300 Lithium Heparin (Sarstedt, Marnay, France). Plasma was separated by centrifugation and stored at −80° C. until insulin radioimmunoassay. Evaluation of overall glucose tolerance was obtained from cumulative glycemia (GCum) and the ΔG, which were determined by the total increment of plasma glucose values during the IPGTT (GCum) and the cumulative glycemia during the test above baseline (ΔG). After six weeks of metabolite treatment, mice were killed by decapitation and organ were dissected and weighed. Half of liver, fat and pancreas samples were snap frozen in liquid nitrogen and stored at −80° C. for molecular studies, and the second half processed for histopathology. All procedures were authorized following review by the institutional ethic committee and carried out under national license condition (Ref 00486.02).
Blood glucose was measured using an Accu-Check® Performa (Roche Diagnostics, Meylan, France) and plasma insulin was determined using Insulin ELISA kits (Mercodia, Uppsala, Sweden). For determination of liver triglycerides, liver samples (100 mg) were homogenized and incubated in NonidetP-40 (5%) and supernatants containing triglycerides were collected. Triglycerides concentration was quantified in the supernatant fraction using a colorimetric assay (ab65336, Abcam, Paris, France) by measuring OD at 570 nm. The ratio NAD/NADH was determined using a quantification kit (MAK037; SigmaAldrich, St Quentin, France) on extracts prepared from 20 mg pancreas tissue. Samples were homogenized in the extraction buffer and clarified by centrifugation. Supernatant was deproteinized by filtration through a 10-kDa cutoff spin filter (Millipore SAS, Molsheim, France). The assay was then performed according to the manufacturer's instructions.
As expected, mice fed HFD rapidly gained more weight than mice fed control diet and developed fasting hyperglycemia and marked glucose intolerance (FIG. 1A-1F).

For `Cc1ccc(O)c(O)c1` [4-MC, 4-methylcatechol], the “adiposity index (retroperitoneal fat pads to body weight)” value (both diet groups (CHD, HFD), 6 weeks, vs saline) was “significant reduction”, the liver triglycerides content (both diet groups, vs saline) was “significant reduction” and the cumulative glycemia (both diets, IPGTT, vs saline) was “reduced”. The glucose tolerance (both diets, IPGTT, vs saline) was “improved glucose tolerance”, the ΔG (both diets, IPGTT, vs saline) was “reduced” and the fasting glycemia (both diets, vs saline) was “reduced”. For the same compound, the insulin secretion (both diets, vs saline) was “increased insulin secretion”, the liver weight (mice fed HFD or control diet) was “significant reduction” and the pancreas weight (mice fed HFD or control diet) was “increased pancreas weight”. For the same compound, the body growth (mice fed chow diet or HFD, chronic treatment, vs saline) was “strong reduction” and the BMI (mice fed chow diet or HFD, vs saline) was “strong reduction”.
